Patent US20050004167A1, “Branched chain amino acid-dependent aminotransferase inhibitors and their use in the treatment of neurodegenerative diseases” (WARNER-LAMBERT COMPANY LLC, priority 2001, published 2005)
Several values for one entry are separate records, joined by “and”; a condition that tells them apart may be missing. Equal entries are not always repeated.

Tested on: not given
Experiment: not given
Details: not given
With `Cc1c(C(=O)NNS(=O)(=O)c2ccccc2)oc2ccc(Cl)cc12` (hydrate or solvate) [Example 90, 2-Benzofurancarboxylic acid, 5-chloro-3-methyl, 2-(phenylsulfonyl)hydrazide] the melting point was 246.8 to 247.8 °C.
`COc1cccc2cc(C(=O)NNS(=O)(=O)c3cccc(C)c3)oc12` (hydrate or solvate) [Example 55, 2-Benzofurancarboxylic acid, 7-methoxy-, 2-[(3-methylphenyl)sulfonyl]hydrazide] showed a melting point of 170.8 to 171.8 °C.
In the case of `COc1c(C(=O)NNS(=O)(=O)c2ccccc2)oc2ccc(Cl)cc12` (hydrate or solvate) [Example 78, 2-Benzofurancarboxylic acid, 5-chloro-3-methoxy, 2-(phenylsulfonyl)hydrazide], the melting point is reported as 242.2 to 244.2 °C.
In the case of `Nc1ccc2oc(C(=O)NNS(=O)(=O)c3ccccc3)cc2c1` (hydrate or solvate) [Example 91, 2-Benzofurancarboxylic acid, 5-amino-, 2-(phenylsulfonyl)hydrazide], the melting point is reported as 206.9 to 207.7 °C.
In the case of `COc1c(C(=O)NNS(=O)(=O)c2ccc(F)cc2)oc2c(OC)cccc12` (hydrate or solvate) [Example 63, 2-Benzofurancarboxylic acid, 3,7-dimethoxy-, 2-[(4-fluorophenyl)sulfonyl]-hydrazide], the melting point is reported as 190.9 to 191.1 °C.
Molecule `Nc1ccccc1S(=O)(=O)NNC(=O)c1ccc2oc3ccccc3c2c1` [Example 166, 2-Dibenzofurancarboxylic acid, 2-[(2-aminophenyl)sulfonyl]hydrazide] has a melting point of 217.9 to 218.4 °C.
`Cc1ccc2oc(C(=O)NNS(=O)(=O)c3cccc(Cl)c3C)cc2c1` (hydrate or solvate) [Example 82, 2-Benzofurancarboxylic acid, 5-methyl-, 2-[(3-chloro-2-methylphenyl)sulfonyl]-hydrazide] showed a melting point of 182.4 to 184 °C.
In the case of `CCCCCc1ccc(S(=O)(=O)Nc2ccc3oc(C(=O)NNS(=O)(=O)c4ccccc4)cc3c2)cc1` [Example 163, 2-Benzofurancarboxylic acid, 5-(4-pentylphenylsulfonylamino)-, 2-(phenylsulfonyl)hydrazide], the melting point is reported as 169 to 169.8 °C.
`O=C(NNS(=O)(=O)c1ccccc1)c1cccc2cccnc12` (hydrate or solvate) [Example 21, Quinoline-8-carboxylic acid 2-(phenylsulfonyl)hydrazide] showed a melting point of 173 to 175 °C.
In the case of `COc1c(C(=O)NNS(=O)(=O)c2cccc(C)c2)oc2c(OC)cccc12` (hydrate or solvate) [Example 64, 2-Benzofurancarboxylic acid, 3,7-dimethoxy-, 2-[(3-methylphenyl)sulfonyl]-hydrazide], the melting point is reported as 179.4 to 180.9 °C.
In the case of `Cc1cccc(S(=O)(=O)NNC(=O)c2cc3cc(C)ccc3o2)c1` (hydrate or solvate) [Example 80, 2-Benzofurancarboxylic acid, 5-methyl-, 2-([3-methylphenyl)sulfonyl]hydrazide], the melting point is reported as 184.1 to 186 °C.
`COc1c(C(=O)NNS(=O)(=O)c2ccccc2)oc2ccc(-c3ccccc3)cc12` (hydrate or solvate) [Example 65, 2-Benzofurancarboxylic acid, 3-methoxy-5-phenyl-, 2-(phenylsulfonyl)hydrazide] showed a melting point of 180.7 to 181.3 °C.
Molecule `O=C(NNS(=O)(=O)c1cc(Cl)cc(Cl)c1)c1ccc2ncccc2c1` (hydrate or solvate) [Example 138, 6-Quinolinecarboxylic acid, 2-[(3,5-dichlorophenyl)sulfonyl]hydrazide] has a melting point of 241.6 to 242.3 °C.
For `O=C(NNS(=O)(=O)c1ccccc1)c1cc2cc(Cl)ccc2[nH]1` [Example 171, 2-Indolecarboxylic acid, 5-chloro-2-phenylsulfonyl hydrazide], the melting point was 79.1 to 79.9 °C.
In the case of `Cc1ccc2oc(C(=O)NNS(=O)(=O)c3cccc(Cl)c3)cc2c1` (hydrate or solvate) [Example 84, 2-Benzofurancarboxylic acid, 5-methyl-, 2-[(3-chlorophenyl)sulfonyl]hydrazide], the melting point is reported as 186.1 to 186.3 °C.
For `CCOc1cccc2cc(C(=O)NNS(=O)(=O)c3ccccc3)oc12` [Example 147, 7-Ethoxy-2-benzofurancarboxylic acid 2-(phenylsulfonyl)-hydrazide], the melting point was 223 to 224 °C.
For `Nc1ccc2[nH]c(C(=O)NNS(=O)(=O)c3ccccc3)cc2c1` [Example 150, 2-Indolecarboxylic acid, 5-amino-2-phenylsulfonyl hydrazide], the melting point was 240.2 to 241.1 °C.

Target: T1, human Branched Chain Amino Acid Aminotransferase cytosolic form (hBCATc) (Homo sapiens, UniProt P54687)
T1 construct: made in house; host or cells: E. coli BL21(DE3)
T1 sequence (P54687 1-386): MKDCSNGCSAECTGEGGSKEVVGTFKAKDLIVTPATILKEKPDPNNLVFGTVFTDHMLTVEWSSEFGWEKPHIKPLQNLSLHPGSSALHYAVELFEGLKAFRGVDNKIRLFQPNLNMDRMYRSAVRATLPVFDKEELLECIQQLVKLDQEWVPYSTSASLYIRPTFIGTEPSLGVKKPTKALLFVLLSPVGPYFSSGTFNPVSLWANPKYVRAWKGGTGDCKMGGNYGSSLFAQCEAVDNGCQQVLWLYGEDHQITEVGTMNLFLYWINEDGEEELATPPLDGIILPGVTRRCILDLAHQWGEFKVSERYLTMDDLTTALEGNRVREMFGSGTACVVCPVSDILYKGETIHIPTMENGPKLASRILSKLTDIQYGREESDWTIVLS
Experiment: In vitro coupled enzyme assay (glutamate dehydrogenase, NADH formation), human BCATc
Format: biochemical
Details: recombinant human BCATc, 37° C., 25 mM phosphate buffer pH 7.8; several values in a cell = repeat determinations; read-out: RhBCATc
Description: In vitro enzyme assay—human Branched Chain Amino Acid Aminotransferase cytosolic form (hBCATc) and mitochondrial form (hBCATm) as well as rat BCAT cytosolic form were assayed at 37° C. in 25 mM phosphate buffer pH 7.8. In addition, 2 mM DTT and 12.5 mM […] were added to the assay mixture. A coupling enzyme assay was used to monitor the production of glutamate. The formation of NADH from NAD+ at […] was followed on a 96-well plate Molecular Devices plate reader.
The following components were used in this coupled assay: 4 mM ADP, 1 mM NAD+, 750 μM L-Leucine, 500 μM α-ketoglutarate, 10 μM pyridoxal phosphate, 1 unit glutamate dehydrogenase, and 1.25 μg of the appropriate BCAT enzyme. Inhibitions by compounds were assayed by adding various concentrations to this coupled assay procedure as a DMSO stock up to a 5% v/v DMSO/buffer ratio.
Enzyme Preparation—humanBCATc and ratBCATc were expressed in BL21(DE3) cells. A growing culture of cells was induced with 1 mM IPTG at room temperature overnight. These cells were harvested by centrifugation at 10,000 g for 20 minutes. The supernatant was discarded, and the cells were stored at −80° C. until needed. The protein was purified by the following method. The cell paste was resuspended in extraction buffer (0.1 M phosphate, pH 8.0, with 0.01 M Tris-HCL and 5 mM TCEP and then lysed on a French Press at 1000 psi. The lysate was centrifuged at 10,000 g for 15 minutes, and the pellet was discarded. The supernatant was loaded onto a Hitrap Chelating column previously charged with 0.1 M NiSO4 and washed with 3 to 4 column volumes of extraction buffer. The column was then washed with 0.01 Tris, pH 7.5, 10% glycerol, 150 mM NaCl, 5 mM TCEP for two column volumes. The column was then further washed with two column volumes of 0.1 M phosphate, pH 6.0, 0.01 M Tris, 10% glycerol and 750 mM NaCl. Finally, the column was washed with two column volumes of the same buffer plus 50 mM imidazole. The BCAT enzyme was then eluted with the same buffer but with 350 mM imidazole. The eluant was then dialyzed overnight against 10 mM phosphate buffer pH 8.0, 10% glycerol, and 5 mM TCEP. The dialyzed protein was then loaded onto a Q-sepharose column and eluted using a salt gradient. Active fractions were collected and further purified on a Superose-12 column to yield pure BCAT protein.
Molecule `COc1c(C(=O)NNS(=O)(=O)c2ccccc2)oc2ccc(Cl)cc12` [Example 78, 2-Benzofurancarboxylic acid, 5-chloro-3-methoxy, 2-(phenylsulfonyl)hydrazide] has an IC50 of 3.7 µM.
`O=C(NNS(=O)(=O)c1ccccc1)c1cccc2oc3ccccc3c12` [Example 12, 1-Dibenzofurancarboxylic acid 2-(phenylsulfonyl)hydrazide] showed an IC50 of 90.5 µM.
For `COc1cccc2cc(C(=O)NNS(=O)(=O)c3ccccc3C(F)(F)F)oc12` [Example 54, 2-Benzofurancarboxylic acid, 7-methoxy-, 2-[[2-(trifluoromethyl)phenyl]-sulfonyl]hydrazide], the IC50 was 3.76 µM.
With `O=C(NNS(=O)(=O)c1ccccc1)c1cccc2cccnc12` [Example 21, Quinoline-8-carboxylic acid 2-(phenylsulfonyl)hydrazide] the IC50 was > 100 µM.
Work on `O=C(NNS(=O)(=O)c1cccc(F)c1)c1ccc2ncccc2c1` [Example 132, 6-Quinolinecarboxylic acid, 2-[(3-fluorophenyl)sulfonyl]hydrazide] yielded an IC50 of 40 µM.
In the case of `Cc1cccc(S(=O)(=O)NNC(=O)c2cnc3ccccc3c2)c1` [Example 129, 3-Quinolinecarboxylic acid, 2-[(3-methylphenyl)sulfonyl]hydrazide], the IC50 is reported as 13 µM.
For `O=C(NNS(=O)(=O)c1cccc(F)c1)c1cnc2ccccc2c1` [Example 133, 3-Quinolinecarboxylic acid, 2-[(3-fluorophenyl)sulfonyl]hydrazide], the IC50 was > 100 µM.
In the case of `O=C(NNS(=O)(=O)c1ccccc1)c1nccc2ccccc12` [Example 152, Isoquinoline-1-carboxylic acid 2-(phenylsulfonyl)hydrazide], the IC50 is reported as > 100 µM.
For `Cc1ccc(S(=O)(=O)NNC(=O)c2cnc3ccccc3c2)cc1` [Example 127, 3-Quinolinecarboxylic acid, 2-[(4-methylphenyl)sulfonyl]hydrazide], the IC50 was 16.8 µM.
`Cc1cccc(S(=O)(=O)NNC(=O)c2ccc3ncccc3c2)c1` [Example 128, 6-Quinolinecarboxylic acid, 2-[(3-methylphenyl)sulfonyl]hydrazide] gave an IC50 of 12 µM.
With `O=C(NNS(=O)(=O)c1cc(Cl)cc(Cl)c1)c1ccc2ncccc2c1` [Example 138, 6-Quinolinecarboxylic acid, 2-[(3,5-dichlorophenyl)sulfonyl]hydrazide] the IC50 was > 100 µM.
Work on `O=C(NNS(=O)(=O)c1cc(Cl)cc(Cl)c1)c1cnc2ccccc2c1` [Example 139, 3-Quinolinecarboxylic acid, 2-[(3,5-dichlorophenyl)sulfonyl]hydrazide] yielded an IC50 of 41 µM.
Molecule `O=C(NNS(=O)(=O)c1cccc(Cl)c1)c1cnc2ccccc2c1` [Example 131, 3-Quinolinecarboxylic acid, 2-[(3-chlorophenyl)sulfonyl]hydrazide] has an IC50 of 61 µM.
For `COc1cccc2cc(C(=O)NNS(=O)(=O)c3cccc(C)c3)oc12` [Example 55, 2-Benzofurancarboxylic acid, 7-methoxy-, 2-[(3-methylphenyl)sulfonyl]hydrazide], the IC50 was 3.53 µM and 3.3 µM.
`O=C(NNS(=O)(=O)c1cccc(Cl)c1)c1ccc2ncccc2c1` [Example 130, 6-Quinolinecarboxylic acid, 2-[(3-chlorophenyl)sulfonyl]hydrazide] gave an IC50 of 22 µM.
